Measurements taken from ChEMBL document CHEMBL1201862, “PubChem BioAssay data set” (2004).
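Where inhibition never reached the appropriate level, the endpoint shown equals the highest concentration tested. Otherwise, values were interpolated linearly from a five-concentration, 48-hour dose response in 96-well plates. GI50 is the concentration that inhibits growth by half.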 Active and inactive are the calls of the source. No stated cut-off is given here; in the data, active = GI50 up to about 1.1 µM and inactive = higher.

Legend:
Assay in all cases: NCI tumour cell line growth inhibition, 48 h
A549 = test system: A549
BT-549 = test system: BT-549
CAKI-1 = test system: CAKI-1
EKVX = test system: EKVX
HOP-62 = test system: HOP-62
IGROV-1 = test system: IGROV-1
KM12 = test system: KM12
MDA-MB-435 = test system: MDA-MB-435
NCI-H23 = test system: NCI-H23
NCI/ADR-RES = test system: NCI/ADR-RES
OVCAR-3 = test system: OVCAR-3
OVCAR-5 = test system: OVCAR-5
RPMI-8226 = test system: RPMI-8226
RXF 393 = test system: RXF 393
SF-268 = test system: SF-268
U-251 = test system: U-251
HL-60 = test system: HL-60
SNB-19 = test system: SNB-19
T47D = test system: T47D

| SMILES | GI50 (A549) | GI50 (BT-549) | GI50 (CAKI-1) | GI50 (EKVX) | GI50 (HOP-62) | GI50 (IGROV-1) | GI50 (KM12) | GI50 (MDA-MB-435) | GI50 (NCI-H23) | GI50 (NCI/ADR-RES) | GI50 (OVCAR-3) | GI50 (OVCAR-5) | GI50 (RPMI-8226) | GI50 (RXF 393) | GI50 (SF-268) | GI50 (U-251) | GI50 (HL-60) | GI50 (SNB-19) | GI50 (T47D) |
| --- | --- | --- | --- | --- | --- | --- | --- | --- | --- | --- | --- | --- | --- | --- | --- | --- | --- | --- | --- |
| Cc1sc2nc(-c3cc([N+](=O)[O-])c(Cl)cc3Cl)c(/C=N/NC(=N)N)n2c1C | 22.9 µM (inactive) | 3.59 µM (inactive) | 11.9 µM (inactive) | 19.8 µM (inactive) | 7.66 µM (inactive) | 2.34 µM (inactive) | 3.63 µM (inactive) | 3.72 µM (inactive) | 4.08 µM (inactive) | 31.7 µM (inactive) | 4.06 µM (inactive) | 32.2 µM (inactive) | 4.5 µM (inactive) | 5.09 µM (inactive) | 10.5 µM (inactive) | 4.02 µM (inactive) | – | – | – |
| O=C(O)c1ccc([C@@H]2C(=O)N(O)[C@@H]3C=CC[C@@H]32)cc1 | > 100 µM (inactive) | – | > 100 µM (inactive) | > 100 µM (inactive) | > 100 µM (inactive) | > 100 µM (inactive) | > 100 µM (inactive) | – | > 100 µM (inactive) | – | > 100 µM (inactive) | – | > 100 µM (inactive) | > 100 µM (inactive) | > 100 µM (inactive) | – | > 100 µM (inactive) | > 100 µM (inactive) | – |
| COc1ccc(N2C(=O)C(=O)N(c3ccc(/N=N\c4ccccc4)cc3)C2=S)cc1 | 20.2 µM (inactive) | – | 20.2 µM (inactive) | 17.9 µM (inactive) | 18.6 µM (inactive) | 16.6 µM (inactive) | 17.5 µM (inactive) | 22.8 µM (inactive) | 18.5 µM (inactive) | 18.9 µM (inactive) | – | 21.1 µM (inactive) | 40.7 µM (inactive) | 17.3 µM (inactive) | 22.1 µM (inactive) | 17.1 µM (inactive) | 47.3 µM (inactive) | 21.9 µM (inactive) | 18.8 µM (inactive) |
| COc1cc2oc(=O)ccc2cc1C1OC(=O)C2OC21C (centres undefined) | > 100 µM (inactive) | – | > 100 µM (inactive) | > 100 µM (inactive) | > 100 µM (inactive) | > 100 µM (inactive) | > 100 µM (inactive) | > 100 µM (inactive) | > 100 µM (inactive) | > 100 µM (inactive) | > 100 µM (inactive) | > 100 µM (inactive) | > 100 µM (inactive) | > 100 µM (inactive) | > 100 µM (inactive) | > 100 µM (inactive) | > 100 µM (inactive) | > 100 µM (inactive) | > 100 µM (inactive) |
| Cc1ccc2nc3n(c2c1)C(c1c(F)cccc1F)SC3 (centres undefined) | > 100 µM (inactive) | > 100 µM (inactive) | 19.1 µM (inactive) | – | > 100 µM (inactive) | > 100 µM (inactive) | > 100 µM (inactive) | – | > 100 µM (inactive) | > 100 µM (inactive) | > 100 µM (inactive) | > 100 µM (inactive) | > 100 µM (inactive) | > 100 µM (inactive) | > 100 µM (inactive) | > 100 µM (inactive) | 71.6 µM (inactive) | > 100 µM (inactive) | > 100 µM (inactive) |
| Cc1ccc(S(=O)(=O)NC(=O)Nc2ccc(S(N)(=O)=O)cc2S(N)(=O)=O)cc1 | > 100 µM (inactive) | > 100 µM (inactive) | > 100 µM (inactive) | > 100 µM (inactive) | > 100 µM (inactive) | > 100 µM (inactive) | > 100 µM (inactive) | > 100 µM (inactive) | > 100 µM (inactive) | > 100 µM (inactive) | > 100 µM (inactive) | > 100 µM (inactive) | > 100 µM (inactive) | > 100 µM (inactive) | > 100 µM (inactive) | > 100 µM (inactive) | > 100 µM (inactive) | > 100 µM (inactive) | – |
| OCC(CCc1ccccc1I)C1=CCC2(CC1)OCCO2 (centres undefined) | 19.8 µM (inactive) | – | 24.7 µM (inactive) | 21.4 µM (inactive) | 18.2 µM (inactive) | 16.7 µM (inactive) | 16.4 µM (inactive) | 15.7 µM (inactive) | 20.5 µM (inactive) | 20.8 µM (inactive) | 18.6 µM (inactive) | 15.7 µM (inactive) | 53.6 µM (inactive) | 14.9 µM (inactive) | 17.8 µM (inactive) | 19.7 µM (inactive) | 3.53 µM (inactive) | 18.5 µM (inactive) | 17.7 µM (inactive) |
| COC(=O)/C(C#N)=C1\NN=NN1c1ccc(OC)cc1 | > 100 µM (inactive) | – | > 100 µM (inactive) | > 100 µM (inactive) | – | > 100 µM (inactive) | > 100 µM (inactive) | – | > 100 µM (inactive) | – | > 100 µM (inactive) | – | > 100 µM (inactive) | > 100 µM (inactive) | – | > 100 µM (inactive) | – | > 100 µM (inactive) | – |
| Cc1ccccc1NC(=O)Cc1csc(N/N=C2\NC(=O)/C(=C/c3cccc([N+](=O)[O-])c3)S2)n1 | 16.7 µM (inactive) | – | 19.7 µM (inactive) | 13.5 µM (inactive) | 22.9 µM (inactive) | 14.1 µM (inactive) | 16.6 µM (inactive) | 19.8 µM (inactive) | 19.1 µM (inactive) | 31.3 µM (inactive) | 19.7 µM (inactive) | 22.6 µM (inactive) | – | – | – | 21.5 µM (inactive) | 17.8 µM (inactive) | 16.1 µM (inactive) | 17.1 µM (inactive) |
| CCc1cccc(CC)c1Nc1nc(-c2ccccc2-c2ccccc2)cs1 | > 100 µM (inactive) | 18.2 µM (inactive) | > 100 µM (inactive) | > 100 µM (inactive) | > 100 µM (inactive) | 43.7 µM (inactive) | 94.8 µM (inactive) | 35 µM (inactive) | 93.8 µM (inactive) | – | 57.1 µM (inactive) | > 100 µM (inactive) | 30.3 µM (inactive) | > 100 µM (inactive) | > 100 µM (inactive) | 54.8 µM (inactive) | 55.7 µM (inactive) | > 100 µM (inactive) | > 100 µM (inactive) |
| CC(C)(C)C1CC[C@H](O)[C@H]([C@H](O)CC2CC(=O)N(c3ccccc3)C(=O)C2)C1 (some centres undefined) | > 100 µM (inactive) | > 100 µM (inactive) | > 100 µM (inactive) | > 100 µM (inactive) | 74.6 µM (inactive) | > 100 µM (inactive) | > 100 µM (inactive) | > 100 µM (inactive) | 91.6 µM (inactive) | > 100 µM (inactive) | > 100 µM (inactive) | > 100 µM (inactive) | – | > 100 µM (inactive) | > 100 µM (inactive) | > 100 µM (inactive) | > 100 µM (inactive) | > 100 µM (inactive) | – |
| O=C1NC(=O)[C@@H](OCC2CCCCC2)[C@@H]2OCC3OC(C(O)C3O)C12 (some centres undefined) | > 100 µM (inactive) | – | > 100 µM (inactive) | > 100 µM (inactive) | > 100 µM (inactive) | > 100 µM (inactive) | > 100 µM (inactive) | > 100 µM (inactive) | > 100 µM (inactive) | > 100 µM (inactive) | > 100 µM (inactive) | > 100 µM (inactive) | – | > 100 µM (inactive) | > 100 µM (inactive) | – | > 100 µM (inactive) | > 100 µM (inactive) | > 100 µM (inactive) |
| COc1ccc(S(=O)(=O)Nc2ccc(-c3csc(N4C(=O)/C(=C/C=C\c5ccccc5)N=C4c4ccccc4)n3)cc2)cc1Cl | 28.9 µM (inactive) | – | 36.1 µM (inactive) | – | 31.3 µM (inactive) | 19.9 µM (inactive) | 29 µM (inactive) | 22.8 µM (inactive) | 18.9 µM (inactive) | 28.7 µM (inactive) | 26.7 µM (inactive) | 38.6 µM (inactive) | – | 22.3 µM (inactive) | 19.1 µM (inactive) | 28.8 µM (inactive) | 14 µM (inactive) | 33.7 µM (inactive) | 19.5 µM (inactive) |
| CC[C@H]1C=CCC[C@@]2(C[C@@H]3CC[C@H]4[C@@H](C(=O)OCCCCCCCCCCCCCCCC(=O)N(CCCN)C[C@@H](O)CCN)[C@@]5(CCC[C@@H](C)O5)NC(=[N+]34)N2)O1 | 1.77 µM (inactive) | 2.01 µM (inactive) | 5.64 µM (inactive) | 1.76 µM (inactive) | 1.69 µM (inactive) | 1.74 µM (inactive) | 1.57 µM (inactive) | 1.55 µM (inactive) | 1.78 µM (inactive) | > 10 µM (inactive) | 3.91 µM (inactive) | 1.63 µM (inactive) | 1.07 µM (active) | 1.8 µM (inactive) | 1.93 µM (inactive) | 1.64 µM (inactive) | 2.14 µM (inactive) | – | – |
| CNC(=O)OCc1c(COC(=O)NC)c(-c2ccc(Cl)c(Cl)c2)n2c1SCC2 | 23.2 µM (inactive) | – | 4.22 µM (inactive) | 19.8 µM (inactive) | 17.8 µM (inactive) | – | 17.5 µM (inactive) | 18 µM (inactive) | 21 µM (inactive) | 16 µM (inactive) | 16.7 µM (inactive) | 4.06 µM (inactive) | 12.2 µM (inactive) | 3.31 µM (inactive) | 13.3 µM (inactive) | 7.85 µM (inactive) | 7.29 µM (inactive) | 29.2 µM (inactive) | 8.81 µM (inactive) |
| COc1cc(O)c2c(=O)cc(-c3ccc(O)cc3O)oc2c1CC=C(C)C [ARTOCARPETIN A] | 14.2 µM (inactive) | – | 17.1 µM (inactive) | 26.1 µM (inactive) | – | 20.3 µM (inactive) | 6.12 µM (inactive) | 18.7 µM (inactive) | 17.6 µM (inactive) | 27 µM (inactive) | – | > 100 µM (inactive) | 20.3 µM (inactive) | 6.3 µM (inactive) | 17.4 µM (inactive) | 17.1 µM (inactive) | 10.4 µM (inactive) | 18.3 µM (inactive) | – |
